The subject of one data set is dengue virus type 1. Briefly: Antiviral activity against DENV1 MY97-10245 infected in human A549 cells assessed as decrease in envelope protein production after 48 hrs by immunodetection method. The class given is functional, cell-based. Conditions: MY97-10245, A549, 48 h.
A further data set deals with dengue virus type 2. Briefly: Antiviral activity against DENV2 MY97-10340 infected in human A549 cells assessed as decrease in envelope protein production after 48 hrs by immunodetection method. The class given is functional, cell-based. Conditions: MY97-10340, A549, 48 h.
A further data set concerns dengue virus type 3. The experiment in a line: Antiviral activity against DENV3 MY05-34640 infected in human A549 cells assessed as decrease in envelope protein production after 48 hrs by immunodetection method. The class given is functional, cell-based. Conditions: MY05-34640, A549, 48 h.
The subject of a further data set is dengue virus type 4. The experiment in a line: Antiviral activity against DENV4 MY01-22713 infected in human A549 cells assessed as decrease in envelope protein production after 48 hrs by immunodetection method. The class given is functional, cell-based. Conditions: MY01-22713, A549, 48 h.
Data set [1] in a line: Cytotoxicity against human HepG2 cells. The class given is cell-based.

As for `CSc1cccc(NC(=O)c2cc3ccc(C(F)(F)F)cc3n2CC(C)C(=O)NC2CCCC2)c1` (stereo not given), the EC50 in the data set on dengue virus type 1 came out at 5100 nM; with dengue virus type 2, 10000 nM; in the data set with dengue virus type 3 it was 3900 nM; in the data set on dengue virus type 4 it was 2000 nM. In data set [1], this compound displayed a CC50 of 7100 nM.
The like results for `CSc1cccc(N2C(=O)c3cc4ccc(C(F)(F)F)cc4n3C[C@]2(C)C(=O)NC2CCCC2)c1` were, in that order, 5500 nM, 5100 nM, 600 nM, 1500 nM and 20000 nM.
The like results for `O=C(NCC1CC1)C1CN(c2ccccc2)CC(=O)N1c1ccc2ccsc2c1` (stereo not given) were, in that order, 6200 nM, 2200 nM, 200 nM, 600 nM and over 50000 nM.
The like results for `CSc1cccc(N2C(=O)CN(c3cccnc3)CC2C(=O)NC2CCCC2)c1` (stereo not given) were, in that order, over 50000 nM, over 50000 nM, 31000 nM, 45000 nM and over 50000 nM.
For the compound `NC(=O)c1cccc(NC(=O)C2CN(c3ccccc3)CC(=O)N2c2ccc3ccsc3c2)c1` (stereo not given), the EC50 turned out to be 2000 nM with dengue virus type 1, 1500 nM in the data set with dengue virus type 2, 130 nM in the data set on dengue virus type 3 and 1900 nM with dengue virus type 4. The compound also had a CC50 in data set [1] of over 50000 nM.
`COc1cccc(N2CC(=O)N(c3cccc(SC)c3)C(C(=O)NC3CCCC3)C2)c1` (stereo not given): the EC50 worked out at 2900 nM with dengue virus type 1, 5400 nM in the data set on dengue virus type 2, 1600 nM in the data set with dengue virus type 3 and 2400 nM in the data set on dengue virus type 4. This compound also displayed a CC50 in data set [1] of over 50000 nM.
For `O=C(NC1CCCC1)C1CN(c2cccc(C(F)(F)F)c2)CC(=O)N1c1cccc(OC(F)(F)F)c1` (stereo not given) the same measures were 1100 nM, 1700 nM, 400 nM, 700 nM and 8000 nM.
The like results for `CSc1cccc(N2C(=O)CN(c3ccc(C(F)(F)F)cc3)CC2C(=O)NC2CCCC2)c1` (stereo not given) were, in that order, 500 nM, 600 nM, 200 nM, 200 nM and 10000 nM.
The like results for `CSc1cccc(N(C(=O)c2cc3ccc(C(F)(F)F)cc3[nH]2)[C@H](C)C(=O)NC2CCCC2)c1` were, in that order, 5300 nM, 3600 nM, 2500 nM, 2600 nM and 15000 nM.
On to `O=C(NC1CCCC1)[C@H]1CN(c2ccc(C(F)(F)F)cc2)CC(=O)N1c1ccc2ccsc2c1`, for which the EC50 worked out at 6900 nM in the data set with dengue virus type 1, 5700 nM in the data set with dengue virus type 2, 2600 nM in the data set on dengue virus type 3 and 2600 nM in the data set with dengue virus type 4. Moreover, the CC50 in data set [1] is 10000 nM.
As for `CSc1cccc(N2C(=O)c3cc4ccc(C(F)(F)F)cc4n3CC2(C)C(=O)NC2CCCC2)c1` (stereo not given), the EC50 in the data set on dengue virus type 1 is 80 nM; in the data set with dengue virus type 2, 200 nM; in the data set with dengue virus type 3, 50 nM; in the data set with dengue virus type 4, 170 nM. The compound further gave a CC50 in data set [1] of over 50000 nM.
The like results for `O=C(Nc1cccnc1)C1CN(c2ccccc2)CC(=O)N1c1ccc2ccsc2c1` (stereo not given) were, in that order, 5600 nM, 2700 nM, 500 nM, 1700 nM and over 50000 nM.
For `O=C(NC1CCCC1)C1CN(c2ccc(C(F)(F)F)cc2)CC(=O)N1c1ccc2ccsc2c1` (stereo not given) the same measures were 200 nM, 300 nM, 80 nM, 100 nM and 10000 nM.
Take `CSc1cccc(N2C(=O)CN(c3ccccc3)CC2(C)C(=O)NC2CCCC2)c1` (stereo not given): the EC50 in the data set with dengue virus type 1 amounted to 4000 nM; in the data set on dengue virus type 2, 11000 nM; with dengue virus type 3, 1300 nM; in the data set on dengue virus type 4, 2500 nM. The compound also yielded a CC50 in data set [1] of over 50000 nM.
For `CSc1cccc(N(CC(=O)NC2CCCC2)C(=O)c2cc3ccc(C(F)(F)F)cc3n2C)c1` the same measures were 3100 nM, 3000 nM, 2300 nM, 1500 nM and 6300 nM.
Turning to `O=C(NC1CCCC1)C1CN(c2ccc(C(F)(F)F)cc2)CC(=O)N1c1cnc2ccsc2c1` (stereo not given), the concentration for a half-maximal effect (EC50) amounted to 500 nM in the data set on dengue virus type 1, 900 nM in the data set on dengue virus type 2, 300 nM with dengue virus type 3 and 400 nM in the data set with dengue virus type 4. Further, the CC50 in data set [1] is 30000 nM.
As for `CSc1cccc(N2C(=O)CN(c3cncc(C(F)(F)F)c3)CC2C(=O)NC2CCCC2)c1` (stereo not given), the EC50 in the data set on dengue virus type 1 was over 50000 nM; in the data set on dengue virus type 2 it was over 50000 nM; in the data set with dengue virus type 3, 13000 nM; with dengue virus type 4, 28000 nM. The CC50 in data set [1] was over 50000 nM.
For `O=C(NC1CCCC1)C1CN(c2ccccc2)CC(=O)N1c1ccc2ccsc2c1` (stereo not given), the EC50 in the data set with dengue virus type 1 came out at 2400 nM; in the data set on dengue virus type 2 it was 1500 nM; with dengue virus type 3 it was 170 nM; with dengue virus type 4, 900 nM. Further, the CC50 in data set [1] is over 50000 nM.
Take `CC(=O)c1cccc(N2C(=O)CN(c3cccc(C(F)(F)F)c3)CC2C(=O)NC2CCCC2)c1` (stereo not given): the EC50 in the data set on dengue virus type 1 came to 7100 nM; in the data set with dengue virus type 2, 10000 nM; in the data set on dengue virus type 3, 2200 nM; in the data set on dengue virus type 4, 6300 nM. In data set [1], this compound registered a CC50 of 40000 nM.
For `O=C(NC1CCC1)C1CN(c2ccccc2)CC(=O)N1c1ccc2ccsc2c1` (stereo not given) the same measures were 1800 nM, 1000 nM, 50 nM, 200 nM and over 50000 nM.
For `CSc1cccc(N2C(=O)CN(c3cc(C(F)(F)F)ccc3C)CC2C(=O)NC2CCCC2)c1` (stereo not given) the same measures were 6100 nM, 8000 nM, 6500 nM, 5800 nM and 10000 nM.
The like results for `N#Cc1cccc(NC(=O)C2CN(c3ccccc3)CC(=O)N2c2ccc3ccsc3c2)c1` (stereo not given) were, in that order, 2800 nM, 2000 nM, 90 nM, 1200 nM and over 50000 nM.
As to `CC(F)(F)c1cccc(N2C(=O)CN(c3cccc(C(F)(F)F)c3)CC2C(=O)NC2CCCC2)c1` (stereo not given), the EC50 with dengue virus type 1 was determined as 1900 nM; in the data set on dengue virus type 2 it was 2200 nM; with dengue virus type 3, 400 nM; in the data set on dengue virus type 4, 800 nM. In data set [1], this compound registered a CC50 of 9000 nM.
For `CSc1cccc(N2C(=O)CN(c3ccccc3)CC2C(=O)NC2CCCC2)c1` (stereo not given) the same measures were 2000 nM, 11000 nM, 800 nM, 2000 nM and over 50000 nM.
For the compound `CSc1cccc(N(C(=O)c2cc3ccc(C(F)(F)F)cc3[nH]2)[C@@H](C)C(=O)NC2CCCC2)c1`, the EC50 in the data set on dengue virus type 1 turned out to be 2200 nM; in the data set on dengue virus type 2, 1700 nM; with dengue virus type 3, 2000 nM; with dengue virus type 4, 1500 nM. Moreover, the midpoint of cytotoxicity in data set [1], the CC50, lay at 7100 nM.
The like results for `O=C(NC1CCCC1)C1CN(c2ccc(C(F)(F)F)cc2)CC(=O)N1c1ccc2ccoc2c1` (stereo not given) were, in that order, 800 nM, 1000 nM, 400 nM, 500 nM and 20000 nM.
For `CSc1cccc(N2C(=O)CN(c3cccc(C#N)c3)CC2C(=O)NC2CCCC2)c1` (stereo not given) the same measures were 4100 nM, 7400 nM, 1700 nM, 2500 nM and over 50000 nM.

Source of the values: ChEMBL document CHEMBL3997825, “Discovery of 2-oxopiperazine dengue inhibitors by scaffold morphing of a phenotypic high-throughput screening hit” (Bioorg Med Chem Lett, 2017).
